# Laboratory results: patent US11078259B2, “Methods and compositions for promoting thermogenic potential” (Joslin Diabetes Center, Inc., priority 2015, dated 2021)
# Tested on: UCP1 and DIO2 expression in differentiated hBA
# Assay: Q-RT-PCR for UCP1 and DIO2 in differentiated hBA treated with norepinephrine or browning agents
# Type: cell-based, human
# Conditions: hBAs from subject 2; 1 uM norepinephrine (NE) for 4 h
# Description: FIG. 4A depicts total cellular respiration rate (OCR) measured using the Seahorse extracellular flux analyzer in differentiated hWA and hBA from Sub1 and Sub2 that were treated for 4 h with 10 uM forskolin (Fsk). The same number of cells was used in the assay. Data are presented as mean±s.e.m. (n=10; two-tailed Student's t-test; *P<0.05, **P<0.01, ***P<0.001). A representative experiment from a total of three independent studies is shown. FIG. 4B depicts Q-RT-PCR analysis for UCP1 and DIO2 expression in differentiated hWA and hBA from Sub1 and Sub2 that were treated for 48 h with 3.3 nM BMP7, 3.3 nM BMP8 and 50 nM FGF21. Data are presented as a fold change compared to vehicle treatment of hWA in each subject (mean±s.e.m., n=3; two-tailed Student's t-test; *P<0.05, **P<0.01, ***P<0.001). A representative experiment from a total of three independent studies is shown. […]
# RNA extraction, cDNA synthesis, and quantitative real-time PCR (Q-RT-PCR) were performed as described before (Cypess, A. M., et al. Nat Med 19, 635-639, 2013; Tseng, Y. H., et al. Nature 454, 1000-1004, 2008). Q-RT-PCR assays were run in duplicates and quantified in the ABI Prism 7900 sequence-detection system using SYBR (Roche Applied Science, Indianapolis, Ind.). Relative mRNA expression was determined by the delta-Ct method and the values were normalized to the expression of 18S ribosomal RNA (18s).
smiles,measurement,value
NC[C@H](O)c1ccc(O)c(O)c1 [norepinephrine],levels of UCP1 and DIO2,increasing the levels of UCP1 and DIO2
